Test results from patent US10722514B2 (FLX Bio, Inc., priority 2017, dated 2020).

Target: T1, recombinant full-length USP7 (Homo sapiens, UniProt Q93009)
T1 construct: A 25 μl reaction volume containing recombinant full-length USP7 (62 pM)
Assay: USP7-mediated ubiquitin-rhodamine cleavage assay
Type: biochemical
Details: recombinant full-length USP7 62 pM; ubiquitin-rhodamine 100 nM; 30-minute pre-incubation, 1 hour reaction at room temperature; read-out: Potency (USP7 IC50)
How it was run: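 Rhodamine fluorescence read-out after acetic acid stop; IC50 by 4-parameter nonlinear regression. Enzyme at 62 pM, substrate ubiquitin-rhodamine 100 nM final, 1 h at room temperature in the dark, after 30 min compound preincubation. Buffer: HEPES pH 7.3, NaCl, TCEP, BSA; 1% DMSO.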

T1 sequence (Q93009 whole entry): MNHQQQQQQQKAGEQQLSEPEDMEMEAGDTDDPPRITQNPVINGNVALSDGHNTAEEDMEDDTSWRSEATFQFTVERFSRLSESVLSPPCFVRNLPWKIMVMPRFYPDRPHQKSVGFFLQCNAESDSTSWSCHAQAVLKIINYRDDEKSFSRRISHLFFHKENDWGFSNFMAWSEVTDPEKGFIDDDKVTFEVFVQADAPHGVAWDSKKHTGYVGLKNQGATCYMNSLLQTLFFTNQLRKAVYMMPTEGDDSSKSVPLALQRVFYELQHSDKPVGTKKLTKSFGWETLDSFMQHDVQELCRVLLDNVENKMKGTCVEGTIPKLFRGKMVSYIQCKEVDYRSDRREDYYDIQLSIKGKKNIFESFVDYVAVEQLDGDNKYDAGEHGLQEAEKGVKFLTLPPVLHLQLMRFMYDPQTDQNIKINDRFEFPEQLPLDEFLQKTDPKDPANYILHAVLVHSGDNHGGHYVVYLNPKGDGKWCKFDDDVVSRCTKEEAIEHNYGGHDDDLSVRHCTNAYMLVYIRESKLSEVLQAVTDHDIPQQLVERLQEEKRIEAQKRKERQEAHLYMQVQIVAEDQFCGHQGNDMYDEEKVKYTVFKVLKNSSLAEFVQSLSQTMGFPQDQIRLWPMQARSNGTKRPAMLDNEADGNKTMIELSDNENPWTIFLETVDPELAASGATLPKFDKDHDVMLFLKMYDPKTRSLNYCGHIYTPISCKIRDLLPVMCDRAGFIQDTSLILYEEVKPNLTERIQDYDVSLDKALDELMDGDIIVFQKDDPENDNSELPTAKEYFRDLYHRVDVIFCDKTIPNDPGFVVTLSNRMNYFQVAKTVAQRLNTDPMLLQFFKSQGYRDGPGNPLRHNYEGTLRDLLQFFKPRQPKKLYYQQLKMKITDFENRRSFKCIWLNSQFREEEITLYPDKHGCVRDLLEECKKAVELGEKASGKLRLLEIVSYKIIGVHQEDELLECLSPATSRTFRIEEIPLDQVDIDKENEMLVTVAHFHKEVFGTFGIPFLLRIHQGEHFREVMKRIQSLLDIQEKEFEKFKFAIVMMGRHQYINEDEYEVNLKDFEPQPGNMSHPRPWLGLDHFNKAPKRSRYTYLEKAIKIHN

SMILES | IC50 [nM]
Cc1cc(Cl)cc(-c2ccnc3cc(Cn4c(=O)ccn(C)c4=O)sc23)c1OC1CC(N2CCOCC2)C1 (stereo not drawn) [Example 516] | < 1000
Cc1cc(Cl)cc(-c2ccnc3cc(Cn4c(=O)ccn(C)c4=O)sc23)c1O[C@@H]1CC[C@@](C)(N)C1 [Example 518, 3-[[7-[2-[(1R,3R)-3-amino-3-methyl-cyclopentoxy]-5-chloro-3-methyl-phenyl]thieno[3,2-b]pyridin-2-yl]methyl]-1-methyl-pyrimidine-2,4-dione; 2,2,2-trifluoroacetic acid] | < 1000
Cc1cc(Cl)cc(-c2ccnc3cc(Cn4c(=O)ccn(C)c4=O)sc23)c1O[C@@H]1CC[C@](C)(N)C1 [Example 519, 3-[[7-[2-[(1R,3S)-3-amino-3-methyl-cyclopentoxy]-5-chloro-3-methyl-phenyl]thieno[3,2-b]pyridin-2-yl]methyl]-1-methyl-pyrimidine-2,4-dione; 2,2,2-trifluoroacetic acid] | < 1000
Cc1cc(Cl)cc(-c2ccnc3cc(Cn4c(=O)ccn(C)c4=O)sc23)c1O[C@H]1CC[C@H](N)C1 [Example 522, 3-[[7-[2-[(1S,3S)-3-aminocylcopentoxy]-5-chloro-3-methyl-phenyl]thieno[3,2-b]pyridin-2-yl]methyl]-1-methyl-pyrimidine-2,4-dione; 2,2,2-trifluoroacetic acid] | < 1000
Cc1cc(Cl)cc(-c2ncnc3cc(Cn4c(=O)ccn(CC(F)(F)F)c4=O)sc23)c1OC1CC2CNC1C2 (stereo not drawn) [Example 526, 3-[[4-[2-(3-azabicyclo[2.2.1]heptan-5-yloxy)-5-chloro-3-methyl-phenyl]thieno[3,2-d]pyrimidin-6-yl]methyl]-1-(2,2,2-trifluoroethyl)pyrimidine-2,4-dione] | < 1000
Cc1cc(Cl)cc(-c2ccnc3cc(Cn4c(=O)ccn(C)c4=O)sc23)c1O[C@@H]1CC[C@@H](NCCO)C1 [Example 531, 3-[[7-[5-chloro-2-[(1R,3R)-3-(2-hydroxyethylamino)cyclopentoxy]-3-methyl-phenyl]thieno[3,2-b]pyridin-2-yl]methyl]-1-methyl-pyrimidine-2,4-dione; 2,2,2-trifluoroacetic acid] | < 1000
Cc1cc(Cl)cc(-c2ccnc3cc(Cn4c(=O)ccn(C)c4=O)sc23)c1OC1CC(NCCO)C1 (stereo not drawn) [Example 532, 3-[[7-[5-chloro-2-[3-(2-hydroxyethylamino)cyclobutoxy]-3-methyl-phenyl]thieno[3,2-b]pyridin-2-yl]methyl]-1-methyl-pyrimidine-2,4-dione; 2,2,2-trifluoroacetic acid] | < 1000
Cc1cc(Cl)cc(-c2ncnc3cc(Cn4c(=O)ccn(CC(F)(F)F)c4=O)sc23)c1OC1CC(N)C1 (stereo not drawn) [Example 534, 3-[[4-[2-(3-aminocyclobutoxy)-5-chloro-3-methyl-phenyl]thieno[3,2-d]pyrimidin-6-yl]methyl]-1-(2,2,2-trifluoroethyl)pyrimidine-2,4-dione; 2,2,2-trifluoroacetic acid] | < 1000
Cc1cc(Cl)cc(-c2ccnc3cc(Cn4c(=O)ccn(C)c4=O)sc23)c1O[C@@H]1CNCC(C)(C)C1 [Example 536, 3-[[7-[5-chloro-2-[[(3S)-5-dimethyl-3-piperidyl]oxy]-3-methyl-phenyl]thieno[3,2-b]pyridin-2-yl]methyl]-1-methyl-pyrimidine-2,4-dione; 2,2,2-trifluoroacetic acid] | < 1000
Cc1cc(Cl)cc(-c2ccnc3cc(Cn4c(=O)ccn(C)c4=O)sc23)c1OC1C(C)(C)C(N)C1(C)C (stereo not drawn) [Example 538, 3-[[7-[2-(3-amino-2,2,4,4-tetramethyl-cyclobutoxy)-5-chloro-3-methyl-phenyl]thieno[3,2-b]pyridin-2-yl]methyl]-1-methyl-pyrimidine-2,4-dione] | < 1000
Cc1cc(Cl)cc(-c2ncnc3cc(Cn4c(=O)ccn(CC(F)(F)F)c4=O)sc23)c1OC1CC2CNC1C2 (stereo not drawn) [Example 539, 3-[[4-[2-(3-azabicyclo[2.2.1]heptan-5-yloxy)-5-chloro-3-methyl-phenyl]thieno[3,2-d]pyrimidin-6-yl]methyl]-1-(2,2,2-trifluoroethyl)pyrimidine-2,4-dione] | < 1000

Other lines, results leading:

IC50 [nM] | SMILES
< 1000 | Cc1cc(Cl)cc(-c2ccnc3cc(Cn4c(=O)ccn(C)c4=O)sc23)c1OC1CNCCC1(F)F (stereo not drawn) [Example 514, 3-[[7-[5-chloro-2-[(4,4-difluoro-3-piperidyl)oxy]-3-methyl-phenyl]thieno[3,2-b]pyridin-2-yl]methyl]-1-methyl-pyrimidine-2,4-dione; 2,2,2-trifluoroacetic acid]
< 1000 | Cc1cc(Cl)cc(-c2ccnc3cc(Cn4c(=O)cc(C(F)(F)F)n(C)c4=O)sc23)c1O[C@H]1CCCNC1 [Example 515, 3-[[7-[5-chloro-3-methyl-2-[[(3S)-3-piperidyl]oxy]phenyl]thieno[3,2-b]pyridin-2-yl]methyl]-1-methyl-6-(trifluoromethyl)pyrimidine-2,4-dione; 2,2,2-trifluoroacetic acid]
< 1000 | Cc1cc(Cl)cc(-c2ncnc3cc(Cn4c(=O)ccn(CC(F)(F)F)c4=O)sc23)c1O[C@H]1CCCNC1 [Example 517]
< 1000 | Cc1cc(Cl)cc(-c2ncnc3cc(Cn4c(=O)ccn(CC(F)(F)F)c4=O)sc23)c1O[C@@H]1CCNC[C@@H]1C [Example 520, 3-[[4-[5-chloro-3-methyl-2-[[(3S,4R)-3-methyl-4-piperidyl]oxy]phenyl]thieno[3,2-d]pyrimidin-6-yl]methyl]-1-(2,2,2-trifluoroethyl)pyrimidine-2,4-dione]
< 1000 | Cc1cc(Cl)cc(-c2ncnc3cc(Cn4c(=O)ccn(CC(F)(F)F)c4=O)sc23)c1O[C@H]1CCCN(C)C1 [Example 521, 3-[[4-[5-chloro-3-methyl-2-[[(3S)-1-methyl-3-piperidyl]oxy]phenyl]thieno[3,2-d]pyrimidin-6-yl]methyl]-1-(2,2,2-trifluoroethyl)pyrimidine-2,4-dione]
< 1000 | Cc1cc(Cl)cc(-c2ccnc3cc(Cn4c(=O)ccn(C)c4=O)sc23)c1OC1CC[C@H](C)NC1 (stereo partly drawn) [Example 523, 3-[[7-[5-chloro-3-methyl-2-[[(6S)-6-methyl-3-piperidyl]oxy]phenyl]thieno[3,2-b]pyridin-2-yl]methyl]-1-methyl-pyrimidine-2,4-dione; 2,2,2-trifluoroacetic acid]
< 1000 | Cc1cc(Cl)cc(-c2ccnc3cc(Cn4c(=O)ccn(C)c4=O)sc23)c1O[C@@H]1CNC[C@H](C)C1 [Example 524, 3-[[7-[5-chloro-3-methyl-2-[[(3S,5R)-5-methyl-3-piperidyl]oxy]phenyl]thieno[3,2-b]pyridin-2-yl]methyl]-1-methyl-pyrimidine-2,4-dione]
< 1000 | Cc1cc(Cl)cc(-c2ncnc3cc(Cn4c(=O)ccn(CC(F)(F)F)c4=O)sc23)c1O[C@@H]1CNC[C@@H]1F [Example 525, 3-[[4-[5-chloro-2-[(3R,4S)-4-fluoropyrrolidin-3-yl]oxy-3-methyl-phenyl]thieno[3,2-d]pyrimidin-6-yl]methyl]-1-(2,2,2-trifluoroethyl)pyrimidine-2,4-dione]
< 1000 | Cc1cc(Cl)cc(-c2ncnc3cc(Cn4c(=O)ccn(CC(F)(F)F)c4=O)sc23)c1OC1CCNCC1 [Example 527, 3-[[4-[5-chloro-3-methyl-2-(4-piperidyloxy)phenyl]thieno[3,2-d]pyrimidin-6-yl]methyl]-1-(2,2,2-trifluoroethyl)pyrimidine-2,4-dione]
< 1000 | Cc1cc(Cl)cc(-c2ncnc3cc(Cn4c(=O)ccn(CC(F)(F)F)c4=O)sc23)c1O[C@@H]1CCN(C)C[C@@H]1C [Example 528, 3-[[4-[5-chloro-2-[[(3S,4R)-1,3-dimethyl-4-piperidyl]oxy]-3-methyl-phenyl]thieno[3,2-d]pyrimidin-6-yl]methyl]-1-(2,2,2-trifluoroethyl)pyrimidine-2,4-dione]
< 1000 | Cc1cc(Cl)cc(-c2ccnc3cc(Cn4c(=O)ccn(C)c4=O)sc23)c1OC1CN2CCC1C2 [Example 529, 3-[[7-[2-[[(1R,3R,4S)-1-azabicyclo[2.2.1]heptan-3-yl]oxy]-5-chloro-3-methyl-phenyl]thieno[3,2-b]pyridin-2-yl]methyl]-1-methyl-pyrimidine-2,4-dione]
< 1000 | Cc1cc(Cl)cc(-c2ccnc3cc(Cn4c(=O)ccn(C)c4=O)sc23)c1OC1CN2CCC1C2 [Example 530, 3-[[7-[2-[[(1R,3S,4S)-1-azabicyclo[2.2.1]heptan-3-yl]oxy]-5-chloro-3-methyl-phenyl]thieno[3,2-b]pyridin-2-yl]methyl]-1-methyl-pyrimidine-2,4-dione]
< 1000 | Cc1cc(Cl)cc(-c2ccnc3cc(Cn4c(=O)ccn(C)c4=O)sc23)c1OCC1(C(F)F)CNC1 [Example 533, 3-[[7-[5-chloro-2-[[3-(difluoromethyl)azetidin-3-yl]methoxy]-3-methyl-phenyl]thieno[3,2-b]pyridin-2-yl]methyl]-1-methyl-pyrimidine-2,4-dione]
< 1000 | Cc1cc(Cl)cc(-c2ccnc3cc(Cn4c(=O)ccn(CC(F)(F)F)c4=O)sc23)c1OC1CC2CNC1C2 (stereo not drawn) [Example 535, 3-[[7-[2-(3-azabicyclo[2.2.1]heptan-5-yloxy)-5-chloro-3-methyl-phenyl]thieno[3,2-b]pyridin-2-yl]methyl]-1-(2,2,2-trifluoroethyl)pyrimidine-2,4-dione]
< 1000 | Cc1cc(Cl)cc(-c2ccnc3cc(Cn4c(=O)ccn(C)c4=O)sc23)c1O[C@H]1CNC[C@H](C)C1 [Example 537, 3-[[7-[5-chloro-3-methyl-2-[[(3R,5R)-5-methyl-3-piperidyl]oxy]phenyl]thieno[3,2-b]pyridin-2-yl]methyl]-1-methyl-pyrimidine-2,4-dione]
< 1000 | Cc1cc(Cl)cc(-c2ccnc3cc(Cn4c(=O)ccn(CC(F)(F)F)c4=O)sc23)c1OC1CC2CNC1C2 (stereo not drawn) [Example 540, 3-[[7-[2-(3-azabicyclo[2.2.1]heptan-5-yloxy)-5-chloro-3-methyl-phenyl]thieno[3,2-b]pyridin-2-yl]methyl]-1-(2,2,2-trifluoroethyl)pyrimidine-2,4-dione]
